Data as given in patent US12617814B2, “Neuroactive steroids and methods of use thereof” (Sage Therapeutics, LLC, priority 2013, dated 2026).

The molecules below were run against NMDA receptor (GRIN1/GRIN2A) (Homo sapiens, UniProt Q05586+Q12879) (assay: NMDA potentiation, two electrode voltage clamp (TEVC) of Xenopus oocytes expressing NMDA receptor). Settings: 10 μM compound, 3 μM Glutamate and Glycine.
Chain of NMDA receptor (GRIN1/GRIN2A) (Q12879 23-1464, other chains not shown): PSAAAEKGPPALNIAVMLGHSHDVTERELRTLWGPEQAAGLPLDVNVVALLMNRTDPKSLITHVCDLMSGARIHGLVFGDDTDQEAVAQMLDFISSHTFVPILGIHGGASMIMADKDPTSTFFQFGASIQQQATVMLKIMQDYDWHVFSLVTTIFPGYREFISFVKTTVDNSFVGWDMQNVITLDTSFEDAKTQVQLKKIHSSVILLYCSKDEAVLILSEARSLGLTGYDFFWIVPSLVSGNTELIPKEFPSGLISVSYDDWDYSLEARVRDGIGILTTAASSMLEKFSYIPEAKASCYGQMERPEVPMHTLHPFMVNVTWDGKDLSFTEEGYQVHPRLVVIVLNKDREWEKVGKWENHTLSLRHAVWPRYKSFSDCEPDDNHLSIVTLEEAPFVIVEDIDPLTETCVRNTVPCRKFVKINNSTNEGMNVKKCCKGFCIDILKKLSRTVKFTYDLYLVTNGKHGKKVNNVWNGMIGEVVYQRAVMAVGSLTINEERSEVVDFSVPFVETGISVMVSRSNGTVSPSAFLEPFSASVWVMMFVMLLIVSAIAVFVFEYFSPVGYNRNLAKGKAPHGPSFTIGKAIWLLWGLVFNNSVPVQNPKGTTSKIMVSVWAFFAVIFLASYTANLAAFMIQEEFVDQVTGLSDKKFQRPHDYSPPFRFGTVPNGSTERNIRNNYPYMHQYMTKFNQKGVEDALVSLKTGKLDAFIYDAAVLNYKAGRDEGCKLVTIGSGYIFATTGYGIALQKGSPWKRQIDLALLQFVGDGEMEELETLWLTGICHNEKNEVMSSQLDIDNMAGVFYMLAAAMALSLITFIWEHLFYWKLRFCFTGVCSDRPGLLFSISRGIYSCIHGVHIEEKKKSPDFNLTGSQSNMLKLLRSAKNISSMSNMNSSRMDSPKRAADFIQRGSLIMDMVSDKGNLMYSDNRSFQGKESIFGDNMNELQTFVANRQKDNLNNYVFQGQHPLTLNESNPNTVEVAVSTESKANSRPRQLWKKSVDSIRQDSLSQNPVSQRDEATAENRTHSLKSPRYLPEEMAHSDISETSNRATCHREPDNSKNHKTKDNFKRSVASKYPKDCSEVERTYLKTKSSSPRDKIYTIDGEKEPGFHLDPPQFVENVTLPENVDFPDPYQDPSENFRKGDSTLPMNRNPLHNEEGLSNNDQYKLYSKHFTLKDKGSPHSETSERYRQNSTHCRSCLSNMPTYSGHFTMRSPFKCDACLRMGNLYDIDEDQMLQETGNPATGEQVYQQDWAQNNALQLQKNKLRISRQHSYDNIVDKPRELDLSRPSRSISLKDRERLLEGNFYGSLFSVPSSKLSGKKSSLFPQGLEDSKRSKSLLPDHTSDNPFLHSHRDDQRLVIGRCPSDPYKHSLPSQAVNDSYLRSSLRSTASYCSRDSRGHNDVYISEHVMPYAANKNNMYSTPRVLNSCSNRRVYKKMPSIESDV
Format: cell-based
Procedure: NMDA potentiation was assessed using either whole cell patch clamp of mammalian cells which expressed NMDA receptors, or using two-electrode voltage clamp (TEVC) of Xenopus Laevis oocytes expressing NMDA receptors.
The Two Electrode Voltage Clamp (TEVC) technique was used to investigate the effects of compounds (10 μM) on the NMDA receptor (GRIN1/GRIN2A) expressed in Xenopus oocytes. Glutamate/Glycine peak and steady-state currents were recorded from oocytes that expressed the NMDA receptor and the modulatory effects of the test items on these currents were investigated.
Ovaries were harvested from Xenopus Laevis females that had been deeply anesthetized by cooling at 4° C. and immersion in Tricaine methanesulfonate (MS-222 at a concentration of 150 mg/L) in sodium bicarbonate (300 mg/L). Once anesthetized the animal was decapitated and pithed following the rules of animal rights from the Geneva canton. A small piece of ovary was isolated for immediate preparation while the remaining part was placed at 4° C. in a sterile Barth solution containing in mM NaCl 88, KCl 1, NaHCO3 2.4, HEPES 10, MgSO4·7H2O 0.82, Ca(NO3)2·4H2O 0.33, CaCl2·6H2O 0.41, at pH 7.4, and supplemented with 20 μg/ml of kanamycin, 100 unit/ml penicillin and 100 μg/ml streptomycin. All recordings were performed at 18° C. and cells were super-fused with medium containing in mM: NaCl 82.5, KCl 2.5, HEPES 5, CaCl2·2H2O, ·6H2O 1, pH 7.4.
Oocytes were injected with either cDNAs encoding for the human GRIN1 and GRIN2A subunits, using a proprietary automated injection device (Hogg et al., J. Neurosci. Methods, (2008) 169: 65-75) and receptor expression was assessed using electrophysiology at least two days later. The ratio of cDNA injection for GRIN1 and GRIN2A was 1:1. Electrophysiological recordings were made using an automated process equipped with standard TEVC and data were captured and analyzed using a proprietary data acquisition and analysis software running under Matlab (Mathworks Inc.). The membrane potential of the oocytes was maintained at −80 mV throughout the experiments. To explore the effects of proprietary compounds, currents were evoked by applying 3 μM Glutamate and […] Glycine for 10 s. Oocytes were then washed for 90 s before being exposed to the test article at a concentration of 10 μM for 120 s. Following this, 3 μM Glutamate and […] Glycine were immediately reapplied for 10 s. Potentiation of both the peak current and the steady state current was assessed. For statistical analysis values were computed either with Excel (Microsoft) or Matlab (Mathworks Inc.). To obtain mean measurements with standard deviations, all experiments were carried out using at least three cells.
Glutamate was prepared as a concentrated stock solution ([…]) in water and then diluted in the recording medium to obtain the desired test concentration. Glycine was prepared as a stock solution at 1 M in water. Compounds were prepared as stock solution ([…]) in DMSO and then diluted in the recording medium to obtain the desired test concentration.
In the case of CC[C@]1(O)CC[C@@]2(C)C(=CC[C@H]3[C@@H]4CC[C@H]([C@H](C)CCC(O)C(F)(F)F)[C@@]4(C)CC[C@@H]32)C1 (some centres unmarked) [Compound 2-4], the activation at 10 µM was greater than 100%. Work on CC[C@]1(O)CC[C@@]2(C)[C@@H](CC[C@@H]3[C@@H]2CC[C@]2(C)[C@@H]([C@H](C)CCC(O)C(F)(F)F)CC[C@@H]32)C1 (some centres unmarked) [Compound 2-5] yielded an activation at 10 µM of 50 to 100%. Work on CC[C@]1(O)CC[C@@]2(C)C(=CC[C@H]3[C@@H]4CC[C@H]([C@H](C)CC[C@@H](O)C(F)(F)F)[C@@]4(C)CC[C@@H]32)C1 [Compound 2-7] yielded an activation at 10 µM greater than 100%. Work on CC[C@]1(O)CC[C@@]2(C)C(=CC[C@H]3[C@@H]4CC[C@H]([C@H](C)CC[C@H](O)C(F)(F)F)[C@@]4(C)CC[C@@H]32)C1 [Compound 2-8] yielded an activation at 10 µM of 50 to 100%. In the case of CC[C@]1(O)CC[C@@]2(C)[C@@H](CC[C@@H]3[C@@H]2CC[C@]2(C)[C@@H]([C@H](C)CC[C@H](O)C(F)(F)F)CC[C@@H]32)C1 [Compound 2-10], the activation at 10 µM was 10 to 50%. C[C@H](CCC(C)(O)C(F)(F)F)[C@H]1CC[C@H]2[C@@H]3CC=C4C[C@@](C)(O)CC[C@]4(C)[C@H]3CC[C@]12C (some centres unmarked) [Compound 3-2] showed an activation at 10 µM greater than 100%. C[C@H](CCC(C)(O)C(F)(F)F)[C@H]1CC[C@H]2[C@@H]3CC[C@H]4C[C@@](C)(O)CC[C@]4(C)[C@H]3CC[C@]12C (some centres unmarked) [Compound 3-3] showed an activation at 10 µM of 50 to 100%. With C[C@H](CC[C@](C)(O)C(F)(F)F)[C@H]1CC[C@H]2[C@@H]3CC=C4C[C@@](C)(O)CC[C@]4(C)[C@H]3CC[C@]12C [Compound 3-5] the activation at 10 µM was 10 to 50%. C[C@H](CC[C@@](C)(O)C(F)(F)F)[C@H]1CC[C@H]2[C@@H]3CC=C4C[C@@](C)(O)CC[C@]4(C)[C@H]3CC[C@]12C [Compound 3-6] showed an activation at 10 µM of 50 to 100%. With C[C@H](CC[C@@](C)(O)C(F)(F)F)[C@H]1CC[C@H]2[C@@H]3CC[C@H]4C[C@@](C)(O)CC[C@]4(C)[C@H]3CC[C@]12C [Compound 3-7] the activation at 10 µM was 10 to 50%. C[C@H](CC[C@](C)(O)C(F)(F)F)[C@H]1CC[C@H]2[C@@H]3CC[C@H]4C[C@@](C)(O)CC[C@]4(C)[C@H]3CC[C@]12C [Compound 3-8] gave an activation at 10 µM of 50 to 100%. CC[C@@](C)(O)CC[C@@H](C)[C@H]1CC[C@H]2[C@@H]3CC[C@H]4C[C@@](C)(O)CC[C@]4(C)[C@H]3CC[C@]12C [Compound 4-9] showed an activation at 10 µM of 10 to 50%. Work on CC[C@](C)(O)CC[C@@H](C)[C@H]1CC[C@H]2[C@@H]3CC[C@H]4C[C@@](C)(O)CC[C@]4(C)[C@H]3CC[C@]12C [Compound 4-10] yielded an activation at 10 µM of 10 to 50%. CC[C@@](C)(O)CC[C@@H](C)[C@H]1CC[C@H]2[C@@H]3CC=C4C[C@@](C)(O)CC[C@]4(C)[C@H]3CC[C@]12C [Compound 4-11] was tested, and the activation at 10 µM was greater than 100%. CC[C@](C)(O)CC[C@@H](C)[C@H]1CC[C@H]2[C@@H]3CC=C4C[C@@](C)(O)CC[C@]4(C)[C@H]3CC[C@]12C [Compound 4-12] gave an activation at 10 µM of 50 to 100%. With CCC[C@](C)(O)CC[C@@H](C)[C@H]1CC[C@H]2[C@@H]3CC=C4C[C@@](C)(O)CC[C@]4(C)[C@H]3CC[C@]12C [Compound 5-5] the activation at 10 µM was 10 to 50%. CCC[C@@](C)(O)CC[C@@H](C)[C@H]1CC[C@H]2[C@@H]3CC=C4C[C@@](C)(O)CC[C@]4(C)[C@H]3CC[C@]12C [Compound 5-6] gave an activation at 10 µM of 10 to 50%. Work on CCC[C@](C)(O)CC[C@@H](C)[C@H]1CC[C@H]2[C@@H]3CC[C@H]4C[C@@](C)(O)CC[C@]4(C)[C@H]3CC[C@]12C [Compound 5-7] yielded an activation at 10 µM of 50 to 100%. For CCC[C@@](C)(O)CC[C@@H](C)[C@H]1CC[C@H]2[C@@H]3CC[C@H]4C[C@@](C)(O)CC[C@]4(C)[C@H]3CC[C@]12C [Compound 5-8], the activation at 10 µM was 50 to 100%. With C[C@H](CCC(C)(O)CCCO)[C@H]1CC[C@H]2[C@@H]3CC=C4C[C@@](C)(O)CC[C@]4(C)[C@H]3CC[C@]12C (some centres unmarked) [Compound 6-3] the activation at 10 µM was 50 to 100%. C=CCC(C)(O)CC[C@@H](C)[C@H]1CC[C@H]2[C@@H]3CC[C@H]4C[C@@](C)(O)CC[C@]4(C)[C@H]3CC[C@]12C (some centres unmarked) [Compound 6-6] was tested, and the activation at 10 µM was 50 to 100%. C=CC[C@@](C)(O)CC[C@@H](C)[C@H]1CC[C@H]2[C@@H]3CC=C4C[C@@](C)(O)CC[C@]4(C)[C@H]3CC[C@]12C [Compound 6-8] gave an activation at 10 µM of 10 to 50%. C[C@H](CC[C@@](C)(O)CCCO)[C@H]1CC[C@H]2[C@@H]3CC=C4C[C@@](C)(O)CC[C@]4(C)[C@H]3CC[C@]12C [Compound 6-9] gave an activation at 10 µM of 10 to 50%. C=CC[C@](C)(O)CC[C@@H](C)[C@H]1CC[C@H]2[C@@H]3CC[C@H]4C[C@@](C)(O)CC[C@]4(C)[C@H]3CC[C@]12C [Compound 6-11] showed an activation at 10 µM of 10 to 50%. Molecule CCCC[C@](C)(O)CC[C@@H](C)[C@H]1CC[C@H]2[C@@H]3CC=C4C[C@@](C)(O)CC[C@]4(C)[C@H]3CC[C@]12C [Compound 7-4] has an activation at 10 µM of 50 to 100%. CCCC[C@@](C)(O)CC[C@@H](C)[C@H]1CC[C@H]2[C@@H]3CC=C4C[C@@](C)(O)CC[C@]4(C)[C@H]3CC[C@]12C [Compound 7-5] showed an activation at 10 µM of 10 to 50%. With CCCC[C@](C)(O)CC[C@@H](C)[C@H]1CC[C@H]2[C@@H]3CC[C@H]4C[C@@](C)(O)CC[C@]4(C)[C@H]3CC[C@]12C [Compound 7-6] the activation at 10 µM was greater than 100%. For CCCC[C@@](C)(O)CC[C@@H](C)[C@H]1CC[C@H]2[C@@H]3CC[C@H]4C[C@@](C)(O)CC[C@]4(C)[C@H]3CC[C@]12C [Compound 7-7], the activation at 10 µM was 10 to 50%. With CC(C)[C@@](C)(O)CC[C@@H](C)[C@H]1CC[C@H]2[C@@H]3CC[C@H]4C[C@@](C)(O)CC[C@]4(C)[C@H]3CC[C@]12C [Compound 8-5] the activation at 10 µM was 10 to 50%. CC(C)[C@](C)(O)CC[C@@H](C)[C@H]1CC[C@H]2[C@@H]3CC[C@H]4C[C@@](C)(O)CC[C@]4(C)[C@H]3CC[C@]12C [Compound 8-6] gave an activation at 10 µM of 10 to 50%. With CC(C)[C@@](C)(O)CC[C@@H](C)[C@H]1CC[C@H]2[C@@H]3CC=C4C[C@@](C)(O)CC[C@]4(C)[C@H]3CC[C@]12C [Compound 8-7] the activation at 10 µM was 50 to 100%. CC(C)[C@](C)(O)CC[C@@H](C)[C@H]1CC[C@H]2[C@@H]3CC=C4C[C@@](C)(O)CC[C@]4(C)[C@H]3CC[C@]12C [Compound 8-8] was tested, and the activation at 10 µM was greater than 100%. C[C@H](CC[C@@](C)(O)C1CC1)[C@H]1CC[C@H]2[C@@H]3CC=C4C[C@@](C)(O)CC[C@]4(C)[C@H]3CC[C@]12C [Compound 9-3] showed an activation at 10 µM of 50 to 100%. With C[C@H](CC[C@](C)(O)C1CC1)[C@H]1CC[C@H]2[C@@H]3CC=C4C[C@@](C)(O)CC[C@]4(C)[C@H]3CC[C@]12C [Compound 9-4] the activation at 10 µM was 50 to 100%. C[C@H](CCC(C)(O)C1CC1)[C@H]1CC[C@H]2[C@@H]3CC[C@H]4C[C@@](C)(O)CC[C@]4(C)[C@H]3CC[C@]12C (some centres unmarked) [Compound 9-6] gave an activation at 10 µM of 50 to 100%. C[C@H](CC[C@@](C)(O)C1CC1)[C@H]1CC[C@H]2[C@@H]3CC[C@H]4C[C@@](C)(O)CC[C@]4(C)[C@H]3CC[C@]12C [Compound 9-7] was tested, and the activation at 10 µM was 10 to 50%. For C[C@H](CC[C@](C)(O)C1CC1)[C@H]1CC[C@H]2[C@@H]3CC[C@H]4C[C@@](C)(O)CC[C@]4(C)[C@H]3CC[C@]12C [Compound 9-8], the activation at 10 µM was 10 to 50%. C#CC(C)(O)CC[C@@H](C)[C@H]1CC[C@H]2[C@@H]3CC=C4C[C@@](C)(O)CC[C@]4(C)[C@H]3CC[C@]12C (some centres unmarked) [Compound 10-2] showed an activation at 10 µM of 50 to 100%.
